Test results: ChEMBL document CHEMBL1201862, “PubChem BioAssay data set” (2004)
Several values for one entry are separate records, joined by “and”; a condition that tells them apart may be missing. Equal values may be shown once. Activity calls are given as the source filed them.

Legend:
[1] = molecular target: T1, Orexin/Hypocretin receptor type 1 (Homo sapiens, UniProt O43613); assay: (§1) Fluorescence-based cell-based high throughput dose response assay for antagonists of the orexin 1 receptor (OX1R; HCRTR1). [Related pubchem assays (depositor defined):AID434989, AID435008, AID463079, AID485270, AID492963, AID492964, AID492965, AID493232, AID504717, AID504718]; assay type: functional
[2] = molecular target: T1, Orexin/Hypocretin receptor type 1; assay: as §1, with “Homogeneous Time Resolved Fluorescence (HTRF)-based” for “Fluorescence-based”; assay type: functional
CHO-K1 = assay: (§2) Counterscreen for antagonists of the orexin 1 receptor (OX1R; HCRTR1): Homogeneous time resolved fluorescence (HTRF)-based cell-based dose response assay to identify antagonists of the parental CHO-K1 cell line. [Related pubchem assays (depositor defined):AID434989, AID435008, AID463079, AID485270, AID492963, AID492964, AID492965, AID493232, AID504699, AID504701]; assay type: functional; conditions: Cricetulus griseus
Orexin receptor type 2 [3] = molecular target: T2, Orexin receptor type 2 (Homo sapiens, UniProt O43614); assay: Counterscreen assay for antagonists of the orexin 1 receptor (OX1R; HCRTR1): Homogeneous Time Resolved Fluorescence (HTRF)-based cell-based dose response assay for antagonists of the orexin 2 receptor (OX2R; HCRTR2), run by assay provider.; assay type: functional
Orexin receptor type 2 [4] = molecular target: T2, Orexin receptor type 2; assay: Counterscreen assay for antagonists of the orexin 1 receptor (OX1R; HCRTR1): Fluorescence-based cell-based dose response assay for antagonists of the orexin 2 receptor (OX2R; HCRTR2), run by assay provider.; assay type: functional
[5] = as §2, with “Fluorescence-based” for “Homogeneous time resolved fluorescence (HTRF)-based”, “cell-based high throughput” for “cell-based”, “CHO” for “CHO-K1”; assay type: functional
[6] = HepG2 cell cytotoxicity, dose response, cytotoxicity control for non-replicating M. tuberculosis project (AID 489018); assay type: functional; conditions: Mycobacterium tuberculosis
[7] = molecular target: C-C chemokine receptor type 6 (Homo sapiens, UniProt P51684); assay: antagonism of CCR6 beta-arrestin recruitment – cell-based, luminescent beta-arrestin readout, dose response (AID 504728); assay type: functional
Beta-galactosidase = Beta-galactosidase (Escherichia coli, UniProt Q8VNN2); assay: detection-enzyme interference by beta-gal modulators – biochemical, E. coli enzyme, set 3, artefact control for CCR6 antagonist project, dose response (AID 504712); assay type: functional
[8] = A Cell Based Secondary Assay to Explore Cytotoxicity in THP-1 Cells of Compounds that Modulate Mycobacterium tuberculosis in Media Containing Glycerol versus Media without Glycerol (2).; assay type: functional
[9] = tested on: Streptococcus sp. 'group A'; assay: Streptococcus pyogenes SK(-)GAS viability under kanamycin – luminescence, BacTiterGlo, confirmation, counter-screen for streptokinase expression inhibitor project, dose response (AID 1900); assay type: functional, organism-based
[10] = THP-1 cell cytotoxicity, dose response, cytotoxicity control for non-replicating M. tuberculosis project (AID 489025); assay type: functional
[11] = microbe, parasite or virus in culture; assay type: functional; conditions: Mycobacterium tuberculosis
cells = assay type: functional
[12] = Vero cell cytotoxicity, cytotoxicity control for M. tuberculosis inhibitor project, purified and synthesized samples, set 3 (AID 504684); assay type: functional
Streptococcus = assay: GAS UMAA2166 growth inhibition – luminescence, BacTiterGlo, counter-screen for streptokinase expression inhibitor project, dose response (AID 1915); assay type: functional, organism-based;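 also: potency for reduction of bacterial viability or growth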
[13] = A Cell Based Secondary Assay to Explore Cytotoxicity in HepG2 Cells of Compounds that Modulate Mycobacterium tuberculosis in Media Containing Glycerol versus Media without Glycerol (2).; assay type: functional
[14] = Vero E6 cell cytotoxicity, dose response, cytotoxicity control for non-replicating M. tuberculosis project, secondary assay (AID 492998); assay type: functional, VeroE6; conditions: Vero C1008
Streptokinase A = molecular target: T3, Streptokinase A (Streptococcus pyogenes serotype M1, UniProt P10520); assay: viability-normalized secreted streptokinase activity reduction – plasminogen activation absorbance, OD405, dose response (AID 1914); assay type: functional, Streptococcus pyogenes M1 GAS;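 also: secreted streptokinase activity via plasminogen activation per viability signal from cell pellet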
T3 sequence (P10520 whole entry): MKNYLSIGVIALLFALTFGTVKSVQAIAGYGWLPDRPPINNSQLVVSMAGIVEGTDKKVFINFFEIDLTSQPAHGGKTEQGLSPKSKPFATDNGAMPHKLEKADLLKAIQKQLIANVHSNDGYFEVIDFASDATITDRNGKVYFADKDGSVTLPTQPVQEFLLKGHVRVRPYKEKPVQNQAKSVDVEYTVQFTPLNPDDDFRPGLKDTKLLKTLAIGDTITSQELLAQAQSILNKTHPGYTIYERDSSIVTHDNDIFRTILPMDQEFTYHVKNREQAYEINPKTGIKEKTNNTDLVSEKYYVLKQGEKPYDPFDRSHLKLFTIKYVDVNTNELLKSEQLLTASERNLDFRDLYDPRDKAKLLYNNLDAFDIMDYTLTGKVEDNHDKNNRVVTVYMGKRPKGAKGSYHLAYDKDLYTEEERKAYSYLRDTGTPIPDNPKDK

[15] = molecular target: T4, Heat shock factor protein 1 (Mus musculus, UniProt P38532); assay: enhancement of HSF1-driven luciferase signal – cell-based, NIH3T3, luminescence, dose retest, confirmation (AID 435004); assay type: functional;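 also: stress induced by proteasome inhibitor MG132 added 30 min after compound; luciferase reporter driven by HSF1 response element in NIH3T3 cells; actives raise luminescence as potentiators of the MG132 stress response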
T4 sequence (P38532 whole entry): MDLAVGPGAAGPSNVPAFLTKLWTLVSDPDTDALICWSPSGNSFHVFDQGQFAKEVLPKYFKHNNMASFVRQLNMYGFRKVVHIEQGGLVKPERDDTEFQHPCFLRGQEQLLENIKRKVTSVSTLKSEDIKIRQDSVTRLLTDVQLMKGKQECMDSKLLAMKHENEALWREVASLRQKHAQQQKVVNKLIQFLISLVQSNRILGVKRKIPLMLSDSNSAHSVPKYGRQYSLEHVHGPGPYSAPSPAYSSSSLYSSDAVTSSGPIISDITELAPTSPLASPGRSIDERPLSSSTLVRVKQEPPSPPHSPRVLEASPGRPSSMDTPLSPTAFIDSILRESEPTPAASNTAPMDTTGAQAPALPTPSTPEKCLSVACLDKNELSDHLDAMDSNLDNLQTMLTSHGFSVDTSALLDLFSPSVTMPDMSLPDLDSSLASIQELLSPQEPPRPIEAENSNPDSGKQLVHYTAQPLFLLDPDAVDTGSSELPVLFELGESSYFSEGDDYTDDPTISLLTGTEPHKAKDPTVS

[16] = molecular target: Botulinum neurotoxin type A (Clostridium botulinum (strain Hall / ATCC 3502 / NCTC 13319 / Type A), UniProt P0DPI1); assay: High-throughput multiplex microsphere dose response for inhibitors of toxin protease, specifically Botulinum neurotoxin light chain A protease, compounds from Cherry Pick 01.; assay type: functional; conditions: read-out: EC50_MICROM
Phospholipase D2 = Phospholipase D2 (Homo sapiens, UniProt O14939); assay: cellular phospholipase D2 inhibition IC50 – cell-based, dose response (AID 602147); assay type: functional;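 also: cellular assay in HEK293 cells overexpressing GFP-tagged PLD2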
Phospholipase D1 = Phospholipase D1 (Homo sapiens, UniProt Q13393); assay: cellular phospholipase D1 inhibition IC50 – cell-based, dose response (AID 602151); assay type: functional;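 also: cellular PLD1 assay in Calu-1 cells stimulated with PMA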
Sequence of Phospholipase D1 (Q13393 whole entry): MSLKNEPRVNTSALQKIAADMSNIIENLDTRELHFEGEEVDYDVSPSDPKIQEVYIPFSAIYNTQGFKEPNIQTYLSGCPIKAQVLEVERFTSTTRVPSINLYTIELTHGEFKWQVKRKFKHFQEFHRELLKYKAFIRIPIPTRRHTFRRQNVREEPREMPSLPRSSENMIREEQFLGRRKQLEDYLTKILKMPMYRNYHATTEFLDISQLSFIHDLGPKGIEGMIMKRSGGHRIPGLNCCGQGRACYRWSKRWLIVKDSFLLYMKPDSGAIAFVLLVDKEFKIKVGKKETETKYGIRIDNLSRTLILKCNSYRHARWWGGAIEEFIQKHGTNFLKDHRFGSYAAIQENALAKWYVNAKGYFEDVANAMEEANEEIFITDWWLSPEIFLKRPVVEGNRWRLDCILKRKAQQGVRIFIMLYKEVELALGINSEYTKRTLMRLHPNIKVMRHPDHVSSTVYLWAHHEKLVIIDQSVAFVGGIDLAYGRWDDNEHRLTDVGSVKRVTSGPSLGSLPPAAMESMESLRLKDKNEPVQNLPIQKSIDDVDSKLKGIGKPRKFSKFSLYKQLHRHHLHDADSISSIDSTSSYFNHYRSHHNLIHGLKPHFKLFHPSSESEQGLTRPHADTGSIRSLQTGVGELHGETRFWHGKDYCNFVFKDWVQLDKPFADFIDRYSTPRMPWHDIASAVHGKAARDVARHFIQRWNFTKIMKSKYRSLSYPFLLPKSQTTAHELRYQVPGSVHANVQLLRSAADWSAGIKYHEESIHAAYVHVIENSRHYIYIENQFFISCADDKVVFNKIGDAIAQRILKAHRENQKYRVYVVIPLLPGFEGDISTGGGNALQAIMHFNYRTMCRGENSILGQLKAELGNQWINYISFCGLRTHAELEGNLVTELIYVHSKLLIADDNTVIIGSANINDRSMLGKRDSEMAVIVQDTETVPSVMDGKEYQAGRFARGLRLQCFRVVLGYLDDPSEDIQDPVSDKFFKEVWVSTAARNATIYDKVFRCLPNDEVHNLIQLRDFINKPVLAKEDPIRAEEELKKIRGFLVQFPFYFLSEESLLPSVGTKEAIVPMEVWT

T2 sequence (O43614 whole entry): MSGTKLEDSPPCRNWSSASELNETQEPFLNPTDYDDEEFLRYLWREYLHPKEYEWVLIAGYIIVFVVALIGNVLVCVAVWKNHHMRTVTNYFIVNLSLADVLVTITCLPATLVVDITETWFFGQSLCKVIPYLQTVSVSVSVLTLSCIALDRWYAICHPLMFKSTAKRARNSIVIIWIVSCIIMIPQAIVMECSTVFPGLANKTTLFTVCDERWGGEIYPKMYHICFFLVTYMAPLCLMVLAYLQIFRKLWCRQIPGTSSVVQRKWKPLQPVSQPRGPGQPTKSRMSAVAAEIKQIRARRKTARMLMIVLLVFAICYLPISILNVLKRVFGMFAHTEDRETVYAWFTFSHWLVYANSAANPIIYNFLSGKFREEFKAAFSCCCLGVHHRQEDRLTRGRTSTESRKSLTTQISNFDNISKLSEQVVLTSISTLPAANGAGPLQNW
T1 sequence (O43613 whole entry): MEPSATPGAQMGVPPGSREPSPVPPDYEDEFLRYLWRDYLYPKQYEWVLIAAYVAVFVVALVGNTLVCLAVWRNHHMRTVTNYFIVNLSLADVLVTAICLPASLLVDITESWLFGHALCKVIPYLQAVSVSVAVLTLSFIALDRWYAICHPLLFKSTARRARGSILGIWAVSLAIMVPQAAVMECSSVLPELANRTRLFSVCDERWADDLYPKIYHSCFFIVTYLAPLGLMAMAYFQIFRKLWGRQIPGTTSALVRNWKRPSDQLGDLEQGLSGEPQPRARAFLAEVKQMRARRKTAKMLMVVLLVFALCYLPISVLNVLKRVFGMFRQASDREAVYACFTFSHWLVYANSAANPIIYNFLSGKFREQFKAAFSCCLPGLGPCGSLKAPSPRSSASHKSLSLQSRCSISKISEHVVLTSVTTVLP
Sequence of Botulinum neurotoxin type A (P0DPI1 2-448 limits assumed): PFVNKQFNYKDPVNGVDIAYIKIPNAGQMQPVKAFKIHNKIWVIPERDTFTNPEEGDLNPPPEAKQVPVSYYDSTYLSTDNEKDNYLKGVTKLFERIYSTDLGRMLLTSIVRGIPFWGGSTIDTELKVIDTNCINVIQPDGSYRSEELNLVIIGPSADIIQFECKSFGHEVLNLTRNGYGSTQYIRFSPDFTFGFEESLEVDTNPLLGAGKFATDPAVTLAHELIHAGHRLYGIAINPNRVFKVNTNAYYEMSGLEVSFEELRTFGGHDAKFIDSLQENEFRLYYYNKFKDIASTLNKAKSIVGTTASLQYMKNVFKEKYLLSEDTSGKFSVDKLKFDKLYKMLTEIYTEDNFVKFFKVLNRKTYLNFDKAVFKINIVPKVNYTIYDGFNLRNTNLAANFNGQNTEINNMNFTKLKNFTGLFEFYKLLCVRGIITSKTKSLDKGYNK
Sequence of Beta-galactosidase (Q8VNN2 whole entry): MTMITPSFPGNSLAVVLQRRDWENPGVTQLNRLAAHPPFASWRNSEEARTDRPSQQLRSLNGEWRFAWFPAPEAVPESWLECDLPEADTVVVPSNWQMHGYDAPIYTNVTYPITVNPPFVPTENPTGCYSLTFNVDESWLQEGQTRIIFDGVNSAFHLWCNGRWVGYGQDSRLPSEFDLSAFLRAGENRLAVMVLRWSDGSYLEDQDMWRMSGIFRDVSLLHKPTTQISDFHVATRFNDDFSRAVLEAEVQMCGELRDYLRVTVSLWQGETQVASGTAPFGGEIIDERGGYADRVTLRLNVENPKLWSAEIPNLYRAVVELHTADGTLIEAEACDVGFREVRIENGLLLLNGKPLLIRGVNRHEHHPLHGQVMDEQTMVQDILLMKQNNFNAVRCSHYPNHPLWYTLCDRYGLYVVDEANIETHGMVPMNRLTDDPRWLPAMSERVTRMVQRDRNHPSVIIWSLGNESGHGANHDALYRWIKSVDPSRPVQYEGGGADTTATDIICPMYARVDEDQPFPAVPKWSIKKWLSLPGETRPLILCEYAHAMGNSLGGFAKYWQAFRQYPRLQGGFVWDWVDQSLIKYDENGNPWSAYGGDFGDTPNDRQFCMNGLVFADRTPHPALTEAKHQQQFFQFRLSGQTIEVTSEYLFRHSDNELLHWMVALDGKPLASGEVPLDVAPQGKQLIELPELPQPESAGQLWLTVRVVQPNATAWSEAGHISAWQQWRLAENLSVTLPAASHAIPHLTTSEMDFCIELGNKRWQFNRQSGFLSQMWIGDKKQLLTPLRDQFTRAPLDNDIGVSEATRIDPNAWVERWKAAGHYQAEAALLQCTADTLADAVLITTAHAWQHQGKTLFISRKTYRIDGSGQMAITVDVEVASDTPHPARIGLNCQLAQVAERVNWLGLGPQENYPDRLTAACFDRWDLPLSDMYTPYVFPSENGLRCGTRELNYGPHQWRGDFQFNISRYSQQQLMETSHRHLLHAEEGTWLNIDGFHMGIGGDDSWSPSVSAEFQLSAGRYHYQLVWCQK
Sequence of Phospholipase D2 (O14939 whole entry): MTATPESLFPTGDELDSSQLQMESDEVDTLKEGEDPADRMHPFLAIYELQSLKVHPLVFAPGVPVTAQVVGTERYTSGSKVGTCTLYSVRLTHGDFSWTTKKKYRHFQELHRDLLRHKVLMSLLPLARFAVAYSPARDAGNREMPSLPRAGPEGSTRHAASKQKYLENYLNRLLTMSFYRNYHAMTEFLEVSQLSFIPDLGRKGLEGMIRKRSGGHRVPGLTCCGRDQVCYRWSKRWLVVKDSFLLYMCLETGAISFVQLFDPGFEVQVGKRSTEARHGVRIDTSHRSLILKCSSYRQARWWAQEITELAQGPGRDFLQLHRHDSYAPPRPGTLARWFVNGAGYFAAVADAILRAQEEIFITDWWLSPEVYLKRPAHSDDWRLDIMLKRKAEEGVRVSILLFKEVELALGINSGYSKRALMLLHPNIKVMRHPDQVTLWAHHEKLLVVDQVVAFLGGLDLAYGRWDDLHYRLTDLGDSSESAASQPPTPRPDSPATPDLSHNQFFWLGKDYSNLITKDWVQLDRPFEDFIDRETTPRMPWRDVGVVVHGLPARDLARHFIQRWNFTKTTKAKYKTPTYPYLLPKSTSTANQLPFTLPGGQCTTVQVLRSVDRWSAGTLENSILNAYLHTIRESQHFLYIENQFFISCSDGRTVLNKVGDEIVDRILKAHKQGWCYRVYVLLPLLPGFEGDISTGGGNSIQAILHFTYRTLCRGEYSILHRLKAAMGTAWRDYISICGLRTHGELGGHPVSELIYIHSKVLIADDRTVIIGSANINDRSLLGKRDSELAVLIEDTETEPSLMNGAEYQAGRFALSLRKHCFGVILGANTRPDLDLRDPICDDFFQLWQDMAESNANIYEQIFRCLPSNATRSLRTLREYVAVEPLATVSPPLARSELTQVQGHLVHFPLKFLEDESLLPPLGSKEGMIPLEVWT
Sequence of C-C chemokine receptor type 6 (P51684 whole entry): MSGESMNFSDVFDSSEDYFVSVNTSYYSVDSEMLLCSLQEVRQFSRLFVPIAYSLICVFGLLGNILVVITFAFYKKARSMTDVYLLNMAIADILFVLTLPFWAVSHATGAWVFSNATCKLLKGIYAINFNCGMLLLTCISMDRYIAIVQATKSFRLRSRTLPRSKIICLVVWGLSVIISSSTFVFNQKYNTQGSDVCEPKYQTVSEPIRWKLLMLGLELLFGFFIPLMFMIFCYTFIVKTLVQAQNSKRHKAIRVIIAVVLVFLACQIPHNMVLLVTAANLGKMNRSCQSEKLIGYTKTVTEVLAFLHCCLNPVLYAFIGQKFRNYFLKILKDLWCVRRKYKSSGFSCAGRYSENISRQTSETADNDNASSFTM

N#CCSc1nc(-c2ccccc2)nc2ccccc12
IC50 [1]: > 49.8 µM (inactive) | IC50 [2]: 2.84 µM (active) | IC50 (CHO-K1): > 66.3 µM (inactive) | IC50 (Orexin receptor type 2 [3]): > 50 µM (inactive) | IC50 (Orexin receptor type 2 [4]): > 88.8 µM (inactive) | IC50 [5]: > 49.8 µM (inactive)

Cc1nn2c(NCc3ccccn3)cc(C(C)C)nc2c1-c1ccccc1
CC50 [6]: 6.6 µM (active) | IC50 [7]: > 66.6 µM (inactive) | IC50 (Beta-galactosidase): > 66.6 µM (inactive) | CC50 [8]: 4.39 µM (active) | EC50 [9]: 5.57 µM (active) | CC50 [10]: 9.09 µM (active) | CC50 [11]: 24.5 µM (active) | IC50 (cells): 1.51 µM (active) | CC50 [12]: 11.1 µM (active) | EC50 (Streptococcus): 23.2 µM (active) | CC50 [13]: 0.46 µM (active) | CC50 [14]: 15.8 µM (active) | EC50 (Streptokinase A): 6.95 µM (active)

COc1ccc(C2CC(c3cccs3)=NN2c2nc(C)c(C(C)=O)s2)cc1OC (stereo not drawn)
EC50 [15]: 111 µM (active) | EC50 [16]: 7.9 µM (active) and 4.8 µM (active)

C[C@@H](CN1CCC(n2c(=O)[nH]c3ccccc32)CC1)NC(=O)c1ccc2ncccc2c1
IC50 (Phospholipase D2): 4.1 µM (active) | IC50 (Phospholipase D1): 0.017 µM (active)
